Experimental data as given in patent publication US20170295788A1, “USE OF HETEROCYCLIC FLUOROALKENYL SULFONE COMPOUNDS FOR REPELLING MOLLUSCS” (Adama Makhteshim Ltd., priority 2014, published 2017).

Tested on: Deroceras reticulatum
Assay: Split box trial: slug damage to lettuce seedlings / slug repellency
Type: in vivo
Method: A split box trial was conducted using Deroceras reticulatum as the slug species and lettuce seedling as the food source. There were 5 split treatments with each treatment replicated four times using a simple randomized block design. Each plot was a single enclosed cage of dimensions 0.6 m×0.4 m. Each cage was of opaque plastic construction with rigid sides and a removable fine muslin top to prevent escape of the slugs. The cages were each filled with natural loam soil to a depth of approximately 7 cm, which was consolidated to prevent slug escape. Half of each box was covered with a polythene sheet before spraying to prevent the spray from reaching the soil on half of the box. […] Following the application of fluensulfone 250 CS, one treatment was incorporated into the soil by mixing the top 2 cm of the soil. The other applications had no soil incorporation. Lettuce plants were planted into the soil either seven or two days after spraying. At these intervals after spraying, six lettuce plants were planted into each cage, three in the treated side and three in the untreated side. After transplanting the lettuce plants, eight adult slugs were introduced into the centre of each cage. The soil was kept damp for the duration of the trials. [table] All sprayed treatments applied in 200 l/ha water. Assessments were carried out after the introduction of the slugs. Severity of leaf damage was assessed using a % scale where 0=no damage and 100=total loss of plant foliage. Incidence of plant damage was assessed by counting the actual number of plants showing damage.

SMILES: O=S(=O)(CCC(F)=C(F)F)c1ncc(Cl)s1 [fluensulfone]
- numbers of damaged lettuce plants (all fluensulfone treated boxes, compared to the untreated box): reduced compared to the untreated box
- amount of damage caused to the lettuce plants (damage severity) (treated boxes compared to the untreated box): reduced
- effect on live slugs (repellency) (treated boxes, slugs avoided the sprayed side and migrated to the untreated side): repellent effect
